The values below come from patent US20220380319A1 (Bial - R&D Investments, S.A., priority 2019, published 2022).

The structures appear in SMILES notation. Values after ≈ are worked out from the molar mass of the structure shown. Bounds are passed on as bounds.

For orientation: solubility means the dissolved amount per volume that the medium holds. Higher therefore signals much dissolved substance. For orientation: IC50 means the concentration needed to halve the response being measured.

The nature of data set [1]: Compound solubility in water.
The target of another data set is T1, acid ceramidase (Homo sapiens, UniProt Q13510).
T1 construct: Cell lysates overexpressing acid ceramidase were used as the enzyme source; expressed in transfected cells
T1 sequence (Q13510 22-395): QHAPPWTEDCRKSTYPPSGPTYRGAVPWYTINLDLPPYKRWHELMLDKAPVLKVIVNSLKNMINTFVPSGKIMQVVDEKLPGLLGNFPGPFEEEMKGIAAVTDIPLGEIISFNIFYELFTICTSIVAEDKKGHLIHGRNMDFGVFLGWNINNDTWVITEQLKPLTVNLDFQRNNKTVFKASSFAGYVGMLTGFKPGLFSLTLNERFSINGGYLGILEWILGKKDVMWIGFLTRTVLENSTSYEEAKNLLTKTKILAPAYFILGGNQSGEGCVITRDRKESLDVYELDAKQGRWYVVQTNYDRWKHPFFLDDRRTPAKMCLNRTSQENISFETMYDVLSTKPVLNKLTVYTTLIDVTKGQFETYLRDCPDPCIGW
Description: Acid ceramidase inhibition, biochemical fluorescent assay with cell lysates overexpressing acid ceramidase, substrate Rbm14-12. Conditions: substrate Rbm14-12 6.3 μM. The essentials:
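IC50 derived by four-parameter fitting of fluorescence (ex360 nm, em446 nm) produced after 1 hr in methanol/NaIO4/glycine stop buffer, pH 10.6. Reaction: 6.3 μM Rbm14-12, 1 hr RT, following 1 hr RT compound preincubation with 10 μg overexpressing-cell lysate protein in pH 4.5 NaAC/NaCl buffer.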

Where [2] appears, read: pH 4.5, 1 hr preincubation at RT.

`CN1CCN(C2CN(c3cccc4c3ncn4C(=O)NCCCc3ccccc3)C2)CC1` [Example 276, 4-(3-(4-Methylpiperazin-1-yl)azetidin-1-yl)-N-(3-phenylpropyl)-1H-benzo[d]imidazole-1-carboxamide] yielded a solubility in data set [1] of 28 µg/mL (≈ 64.7 µM). On acid ceramidase (pH 4.5), this compound had an IC50 below 200 nM.

With `CN1C2CCC1CN(c1cccc3c1ncn3C(=O)NCCC1CCC(F)(F)C1)C2` (centres unmarked) [Example 289, N-(2-(3,3-Difluorocyclopentyl)ethyl)-4-(8-methyl-3,8-diazabicyclo[3.2.1]octan-3-yl)-1H-benzo[d]imidazole-1-carboxamide], the concentration in solution in data set [1] (solubility) was 39 µg/mL (≈ 93.4 µM). Moreover, at acid ceramidase (pH 4.5), the IC50 is 200 to 1000 nM.

With `CCN1CCN(c2cccc3c2ncn3C(=O)NCCCc2ccccc2)CC1` [Example 249, 4-(4-Ethylpiperazin-1-yl)-N-(3-phenylpropyl)-1H-benzo[d]imidazole-1-carboxamide], the solubility in data set [1] was 12 µg/mL (≈ 30.6 µM). In addition, the IC50 at acid ceramidase (pH 4.5) was below 200 nM.

As for `CCCCNC(=O)n1cnc2cc(N3CCC(N4CCOCC4)CC3)ccc21` [Example 101b, N-butyl-5-(4-morpholinopiperidin-1-yl)-1H-benzo[d]imidazole-1-carboxamide], the concentration in solution in data set [1] (solubility) came to 7.5 µg/mL (≈ 19.5 µM). On acid ceramidase (setting [2]), the half-inhibitory concentration (IC50) is below 200 nM.

For `COc1nc2ccc(N3CCOCC3)cc2n1C(=O)NCCCCn1ccc(C(C)(C)C)n1` [Example 188b, N-(4-(3-(tert-butyl)-1H-pyrazol-1-yl)butyl)-2-methoxy-6-morpholino-1H-benzo[d]imidazole-1-carboxamide], the concentration in solution in data set [1] (solubility) was 26 µg/mL (≈ 57.2 µM). The half-maximal inhibitory concentration (IC50) against acid ceramidase (pH 4.5) fell in the range of 200 to 1000 nM.

Take `COc1ccc(C#CCNC(=O)n2cnc3c(N4CCN(C)CC4)cccc32)cc1` [Example 339, N-(3-(4-Methoxyphenyl)prop-2-yn-1-yl)-4-(4-methylpiperazin-1-yl)-1H-benzo[d]imidazole-1-carboxamide]: the solubility in data set [1] came to 16 µg/mL (≈ 39.7 µM). For the same compound, the 50% inhibitory concentration (IC50) against acid ceramidase (setting [2]) is below 200 nM.

In the case of `CCCCNC(=O)n1cnc2c(C3CCN(C)CC3)c(C(F)(F)F)ccc21` [Example 56, N-Butyl-4-(1-methylpiperidin-4-yl)-5-(trifluoromethyl)-1H-benzo[d]imidazole-1-carboxamide], the solubility in data set [1] amounted to 28.1 µg/mL (≈ 73.5 µM). This compound also had a 50% inhibitory concentration (IC50) at acid ceramidase (setting [2]) above 1000 nM.

As to `CC#CCNC(=O)n1cnc2c(N3CCN(C)CC3)cccc21` [Example 281, N-(But-2-yn-1-yl)-4-(4-methylpiperazin-1-yl)-1H-benzo[d]imidazole-1-carboxamide], the solubility in data set [1] was 32 µg/mL (≈ 103 µM). For the same compound, the IC50 against acid ceramidase (pH 4.5) lay in the range of 200 to 1000 nM.

`CCCCNC(=O)n1c(OC)nc2nc(-c3cncnc3)ccc21` [Example 85b, N-butyl-2-methoxy-5-(pyrimidin-5-yl)-1H-imidazo[4,5-b]pyridine-1-carboxamide] returned a solubility in data set [1] of 54 µg/mL (≈ 165 µM). In addition, at acid ceramidase (setting [2]), the IC50 was below 200 nM.

For `COc1nc2cc(N3CCN(C(C)=O)CC3)ccc2n1C(=O)NCCCc1ccccc1` [Example 236a, 5-(4-Acetylpiperazin-1-yl)-2-methoxy-N-(3-phenylpropyl)-1H-benzo[d]imidazole-1-carboxamide], the concentration in solution in data set [1] (solubility) was 18 µg/mL (≈ 41.3 µM). The IC50 against acid ceramidase (pH 4.5) was below 200 nM.

`COc1cccc(C#CCNC(=O)n2cnc3c(N4CCN(C)CC4)cccc32)c1` [Example 340, N-(3-(3-Methoxyphenyl)prop-2-yn-1-yl)-4-(4-methylpiperazin-1-yl)-1H-benzo[d]imidazole-1-carboxamide]: in data set [1], the concentration in solution (solubility) was 13 µg/mL (≈ 32.2 µM). Also, the IC50 on acid ceramidase (setting [2]) was below 200 nM.

The compound `CC(C)CCNC(=O)n1cnc2c(N3CC(C)(C#N)C3)cccc21` [Example 165, 4-(3-Cyano-3-methylazetidin-1-yl)-N-isopentyl-1H-benzo[d]imidazole-1-carboxamide] gave a solubility in data set [1] of 1 µg/mL (≈ 3.07 µM). Also, the half-inhibitory concentration (IC50) against acid ceramidase (pH 4.5) was in the range of 200 to 1000 nM.

Compound `CN1CCC(c2cccc3c2ncn3C(=O)NCCc2ccccc2)CC1` [Example 12, 4-(1-Methylpiperidin-4-yl)-N-phenethyl-1H-benzo[d]imidazole-1-carboxamide] came in with a solubility in data set [1] of 30.5 µg/mL (≈ 84.1 µM). This compound also came in with an IC50 against acid ceramidase (setting [2]) below 200 nM.

As to `COc1nc2c(N3CCC(F)(F)CC3)cccc2n1C(=O)NCCC(C)C` [Example 144, 4-(4,4-Difluoropiperidin-1-yl)-N-isopentyl-2-methoxy-1H-benzo[d]imidazole-1-carboxamide], the concentration in solution in data set [1] (solubility) was 1.2 µg/mL (≈ 3.15 µM). At acid ceramidase (setting [2]), this compound gave an IC50 above 1000 nM.

In turn, `CCCCNC(=O)n1cnc2cc(F)ccc21` [Example 67, N-Butyl-5-fluoro-1H-benzo[d]imidazole-1-carboxamide] displayed a solubility in data set [1] of 22.5 µg/mL (≈ 95.6 µM). Besides, the concentration for half-maximal inhibition (IC50) at acid ceramidase (setting [2]) is below 200 nM.

In data set [1], `CC(C)CCNC(=O)n1c(=O)n(C)c2ncccc21` [Example 105, N-iso-Pentyl-3-methyl-2-oxo-2,3-dihydro-1H-imidazo[4,5-b]pyridine-1-carboxamide] gave a solubility of 17.4 µg/mL (≈ 66.3 µM). At acid ceramidase (setting [2]), this compound returned an IC50 above 1000 nM.

Compound `CN(C)CC1CN(c2cccc3c2ncn3C(=O)NCC#Cc2ccccc2)C1` [Example 331, 4-(3-((Dimethylamino)methyl)azetidin-1-yl)-N-(3-phenylprop-2-yn-1-yl)-1H-benzo[d]imidazole-1-carboxamide] gave a solubility in data set [1] of 22 µg/mL (≈ 56.8 µM). Further, the concentration for half-maximal inhibition (IC50) against acid ceramidase (pH 4.5) was below 200 nM.

In turn, `CNC1CCN(c2cccc3c2ncn3C(=O)NCCOc2ccccc2)C1` (centres unmarked) [Example 315, 4-(3-(Methylamino)pyrrolidin-1-yl)-N-(2-phenoxyethyl)-1H-benzo[d]imidazole-1-carboxamide] showed a solubility in data set [1] of 30 µg/mL (≈ 79.1 µM). Further, the IC50 on acid ceramidase (pH 4.5) was below 200 nM.

Compound `CN1CC2(CCN(c3cccc4c3ncn4C(=O)NCCOc3ccccc3)CC2)C1` [Example 351, 4-(2-Methyl-2,7-diazaspiro[3.5]nonan-7-yl)-N-(2-phenoxyethyl)-1H-benzo[d]imidazole-1-carboxamide] gave a solubility in data set [1] of 33 µg/mL (≈ 78.7 µM). The same compound gave an IC50 against acid ceramidase (setting [2]) below 200 nM.

In the case of `CN1CCN(C2CN(c3cccc4c3ncn4C(=O)NCCC#Cc3ccccc3)C2)CC1` [Example 362, 4-(3-(4-Methylpiperazin-1-yl)azetidin-1-yl)-N-(4-phenylbut-3-ynyl)-1H-benzo[d]imidazole-1-carboxamide], the solubility in data set [1] was 23 µg/mL (≈ 52 µM). Moreover, the half-inhibitory concentration (IC50) on acid ceramidase (setting [2]) was below 200 nM.

The compound `COc1nc2cc(-c3cccnc3)cnc2n1C(=O)NCC(C)C` [Example 83, N-iso-Butyl-2-methoxy-6-(pyridin-3-yl)-3H-imidazo[4,5-b]pyridine-3-carboxamide] registered a solubility in data set [1] of 16.9 µg/mL (≈ 51.9 µM). The concentration for half-maximal inhibition (IC50) on acid ceramidase (setting [2]) fell in the range of 200 to 1000 nM.

In the case of `COc1nc2cc(F)c(N3CCOCC3)cc2n1C(=O)NCCCCc1ccccc1` [Example 214, 5-Fluoro-2-methoxy-6-morpholino-N-(4-phenylbutyl)-1H-benzo[d]imidazole-1-carboxamide], the solubility in data set [1] stood at 0.3 µg/mL (≈ 0.703 µM). Further, at acid ceramidase (pH 4.5), the half-maximal inhibitory concentration (IC50) is below 200 nM.

Take `O=C(NCCc1ccccc1)n1cnc2cc(-c3ccccn3)c(Cl)cc21` [Example 7a, 6-Chloro-N-phenethyl-5-(pyridin-2-yl)-1H-benzo[d]imidazole-1-carboxamide]: in data set [1], the concentration in solution (solubility) was 0.4 µg/mL (≈ 1.06 µM). Besides, the IC50 on acid ceramidase (setting [2]) is below 200 nM.

`CC(C)CCNC(=O)n1cnc2c(N3CCN(CC(F)(F)F)CC3)cccc21` [Example 153, N-iso-Pentyl-4-(4-(2,2,2-trifluoroethyl)piperazin-1-yl)-1H-benzo[d]imidazole-1-carboxamide] returned a solubility in data set [1] of 10 µg/mL (≈ 25.2 µM). This compound displayed a half-maximal inhibitory concentration (IC50) against acid ceramidase (setting [2]) of 200 to 1000 nM.

In turn, `C#Cc1ccc(CNC(=O)n2cnc3c(N4CCN(C)CC4)cccc32)cc1` [Example 342, N-(4-Ethynylbenzyl)-4-(4-methylpiperazin-1-yl)-1H-benzo[d]imidazole-1-carboxamide] came in with a solubility in data set [1] of 4 µg/mL (≈ 10.7 µM). In addition, at acid ceramidase (setting [2]), the IC50 is below 200 nM.

For the compound `CC(C)OCCNC(=O)n1cnc2ccccc21` [Example 48, N-(2-iso-Propoxyethyl)-1H-benzo[d]imidazole-1-carboxamide], in data set [1], the solubility was 15.4 µg/mL (≈ 62.3 µM). At acid ceramidase (setting [2]), this compound registered an IC50 of 200 to 1000 nM.

`CN1CCN(c2cccc3c2ncn3C(=O)NCC#Cc2ccc(F)cc2)CC1` [Example 336, N-(3-(4-Fluorophenyl)prop-2-yn-1-yl)-4-(4-methylpiperazin-1-yl)-1H-benzo[d]imidazole-1-carboxamide]: the concentration in solution in data set [1] (solubility) came to 15 µg/mL (≈ 38.3 µM). Further, the half-inhibitory concentration (IC50) against acid ceramidase (setting [2]) was below 200 nM.

With `O=C(NCCOc1ccccc1)n1cnc2c(N3CCN(C4COC4)CC3)cccc21` [Example 327, 4-(4-(Oxetan-3-yl)piperazin-1-yl)-N-(2-phenoxyethyl)-1H-benzo[d]imidazole-1-carboxamide], the concentration in solution in data set [1] (solubility) was 25 µg/mL (≈ 59.3 µM). At acid ceramidase (pH 4.5), this compound came in with a half-inhibitory concentration (IC50) below 200 nM.

Turning to `CCCCNC(=O)n1c(OC)nc2ccc(-c3cncnc3)cc21` [Example 82a, N-Butyl-2-methoxy-6-(pyrimidin-5-yl)-1H-benzo[d]imidazole-1-carboxamide], the solubility in data set [1] was 21.8 µg/mL (≈ 67 µM). This compound displayed an IC50 against acid ceramidase (setting [2]) of 200 to 1000 nM.

With `CN(C)C1CCN(c2cccc3c2ncn3C(=O)NCCCc2ccccc2)C1` (centres unmarked) [Example 264, 4-(3-(Dimethylamino)pyrrolidin-1-yl)-N-(3-phenylpropyl)-1H-benzo[d]imidazole-1-carboxamide], the solubility in data set [1] turned out to be 21 µg/mL (≈ 53.6 µM). The concentration for half-maximal inhibition (IC50) on acid ceramidase (pH 4.5) is below 200 nM.

Turning to `CN1CC2CN(c3cccc4c3ncn4C(=O)NCCCc3ccccc3)CC2C1` (centres unmarked) [Example 266, 4-(5-Methylhexahydropyrrolo[3,4-c]pyrrol-2(1H)-yl)-N-(3-phenylpropyl)-1H-benzo[d]imidazole-1-carboxamide], the solubility in data set [1] worked out at 34 µg/mL (≈ 84.3 µM). This compound also yielded a 50% inhibitory concentration (IC50) against acid ceramidase (pH 4.5) below 200 nM.
